Earlier results, collected in patent publication US20050266098A1, “Composition for treatment of a hydrofluoric acid burn” (priority 2004, published 2005).

Columns and labels:
[1] = tested on: hydrofluoric acid injury; conditions: soaks as source of calcium ions
[2] = 18° C.

For `CC(=O)[O-].CC(=O)[O-].[Ca+2]` [Calcium acetate], the “epidermal response resulting from the treatment” value [1] is listed as “negative epidermal response”.

For `CC(=O)CCC(=O)O` [Levulinic acid], the pKa [2] is given as 4.64 and the pH ([2]; 98% aqueous solution) is given as 6.2.
